Measured values from patent EP0831093A1, “1-Carba-(dethia)-Cephalosporin Derivatives” (F. HOFFMANN-LA ROCHE AG, priority 1996, dated 1998).
≈ marks a conversion by molar mass, not a printed value. Counter-ions that a name gives are not always drawn. Like-named read-outs stand apart in the source and are kept apart here.

How the values were obtained:
Assay in all cases: MIC, agar dilution method in Mueller Hinton agar
Assay type in all cases: cell-based
[1] = test system: C.freundii 43; details: Citrobacter freundii
Description: (§1) In vitro activity was determined by minimum inhibitory concentration in a microorganism spectum by the agar dilution method in Mueller Hinton agar, inoculum = 10^4 CFU/spot.

[2] = test system: P.mirabilis 2117; details: Proteus mirabilis
Description: as §1

[3] = test system: S.aureus 6538; details: Staphylococcus aureus
Description: as §1

[4] = test system: E.cloacae 908SSi; details: Enterobacter cloacae
Description: as §1

[5] = test system: S.aureus 743 (MRSA); details: Staphylococcus aureus
Description: as §1

[6] = test system: C.freundii 902; details: Citrobacter freundii
Description: as §1

[7] = test system: E.faecalis 6; details: Enterococcus faecalis
Description: as §1

[8] = test system: P.vulgaris 1028; details: Proteus vulgaris
Description: as §1

[9] = test system: S.pneumoniae. 907; details: Streptococcus pneumoniae
Description: as §1

[10] = test system: P.aeruginosa ATCC27853; details: Pseudomonas aeruginosa
Description: as §1

[11] = test system: S.pyogenes b 15; details: Streptococcus pyogenes
Description: as §1

[12] = test system: E.cloacae 908R; details: Enterobacter cloacae
Description: as §1

[13] = test system: S.marcescens 69438; details: Serratia marcescens
Description: as §1

[14] = test system: K.pneumoniae 418; details: Klebsiella pneumoniae
Description: as §1

[15] = test system: E.coli 25922; details: Escherichia coli
Description: as §1

[16] = test system: E.coli TEM1; details: Escherichia coli
Description: as §1

[17] = C.freundii 43, inoculum = 10^4 CFU/spot, read-out: MIC
[18] = P.mirabilis 2117, inoculum = 10^4 CFU/spot, read-out: MIC
[19] = S.aureus 6538, inoculum = 10^4 CFU/spot, read-out: MIC
[20] = E.cloacae 908SSi, inoculum = 10^4 CFU/spot, read-out: MIC
[21] = S.aureus 743 (MRSA), inoculum = 10^4 CFU/spot, read-out: MIC
[22] = C.freundii 902, inoculum = 10^4 CFU/spot, read-out: MIC
[23] = E.faecalis 6, inoculum = 10^4 CFU/spot, read-out: MIC
[24] = P.vulgaris 1028, inoculum = 10^4 CFU/spot, read-out: MIC
[25] = S.pneumoniae. 907, inoculum = 10^4 CFU/spot, read-out: MIC
[26] = P.aeruginosa ATCC27853, inoculum = 10^4 CFU/spot, read-out: MIC
[27] = S.pyogenes b 15, inoculum = 10^4 CFU/spot, read-out: MIC
[28] = E.cloacae 908R, inoculum = 10^4 CFU/spot, read-out: MIC
[29] = S.marcescens 69438, inoculum = 10^4 CFU/spot, read-out: MIC
[30] = K.pneumoniae 418, inoculum = 10^4 CFU/spot, read-out: MIC
[31] = E.coli 25922, inoculum = 10^4 CFU/spot, read-out: MIC

SMILES	MIC [1, 17] [µg/mL]	MIC [2, 18] [µg/mL]	MIC [3, 19] [µg/mL]	MIC [4, 20] [µg/mL]	MIC [5, 21] [µg/mL]	MIC [6, 22] [µg/mL]	MIC [7, 23] [µg/mL]	MIC [8, 24] [µg/mL]	MIC [9, 25] [µg/mL]	MIC [10, 26] [µg/mL]	MIC [11, 27] [µg/mL]	MIC [12, 28] [µg/mL]	MIC [13, 29] [µg/mL]	MIC [14, 30] [µg/mL]	MIC [15, 31] [µg/mL]	MIC [16] [µg/mL]	further results
C[n+]1cccc(N2CC/C(=C\C3=C(C(=O)[O-])N4C(=O)[C@@H](NC(=O)/C(=N\O)c5csc(N)n5)[C@H]4CC3)C2=O)c1 [C, (6R,7S)-7-[(Z)-2-(2-Amino-thiazol-4-yl)-2-hydroxyimino-acetylamino]-3-[(E)-1-(1-methyl-pyridin-1-ium-3-yl)-2-oxo-pyrrolidin-3-ylidenemethyl]-8-oxo-1-aza-bicyclo[4.2.0]oct-2-ene-2-carboxylate]	0.5 (≈ 0.93 µM)	≤ 0.06	1 (≈ 1.86 µM)	≤ 0.06	8 (≈ 14.9 µM)	≤ 0.06	0.5 (≈ 0.93 µM)	16 (≈ 29.8 µM)	≤ 0.06	4 (≈ 7.44 µM)	≤ 0.06	2 (≈ 3.72 µM)	0.12 (≈ 0.223 µM)	≤ 0.06	≤ 0.06	≤ 0.06	
C[n+]1cccc(N2CC/C(=C\C3=C(C(=O)[O-])N4C(=O)[C@@H](NC(=O)/C(=N\OC5CCCC5)c5nsc(N)n5)[C@H]4CC3)C2=O)c1 [E, (6R,7S)-7-[(Z)-2-(5-Amino-[1,2,4]thiadiazol-3-yl)-cyclopentyloximino-acetylamino]-3-[(E)-1-(1-methyl-pyridin-1-ium-3-yl)-2-oxo-pyrroliden-3-ylidenemethyl]-8-oxo-1-aza-bicyclo[4.2.0]oct-2-ene-2-carboxylate]	0.5 (≈ 0.824 µM)	2 (≈ 3.3 µM)	0.5 (≈ 0.824 µM)	≤ 0.06	4 (≈ 6.59 µM)	≤ 0.06	1 (≈ 1.65 µM)	32 (≈ 52.7 µM)	≤ 0.06	8 (≈ 13.2 µM)	≤ 0.06	0.5 (≈ 0.824 µM)	1 (≈ 1.65 µM)	0.25 (≈ 0.412 µM)	≤ 0.06	1 (≈ 1.65 µM)	
C[n+]1cccc(N2CC/C(=C\C3=C(C(=O)[O-])N4C(=O)[C@@H](NC(=O)/C(=N\O)c5nsc(N)n5)[C@H]4CC3)C2=O)c1 [D, (6R,7S)-7-[(Z)-2-(5-Amino-[1,2,4]thiadiazol-3-yl)-hydroxyimino-acetylamino]-3-[(E)-1-(1-methyl-pyridin-1-ium-3-yl)-2-oxo-pyrrolidin-3-ylidenemethyl]-8-oxo-1-aza-bicyclo[4.2.0]oct-2-ene-2-carboxylate]	0.5 (≈ 0.928 µM)	0.12 (≈ 0.223 µM)	0.5 (≈ 0.928 µM)	0.12 (≈ 0.223 µM)	8 (≈ 14.9 µM)	≤ 0.06	0.25 (≈ 0.464 µM)	> 32	≤ 0.06	8 (≈ 14.9 µM)	≤ 0.06	1 (≈ 1.86 µM)	0.12 (≈ 0.223 µM)	≤ 0.06	0.06 (≈ 0.111 µM)	0.25 (≈ 0.464 µM)	
Nc1nc(/C(=N/O)C(=O)N[C@@H]2C(=O)N3C(C(=O)[O-])=C(/C=C4\CCN(CC(F)(F)F)C4=O)CC[C@H]23)cs1.[Na+] [A, (6R,7S)-7-[(Z)-2-(2-Amino-thiazol-4-yl)-2-hydroxyimino-acetylamino]-8-oxo-3-[(E)-2-oxo-1-(2,2,2-trifluoro-ethyl)-pyrrolidin-3-ylidenemethyl]-1-aza-bicyclo[4.2.0]oct-2-ene-2-carboxylic acid sodium salt (1:1)]																0.12	MIC [1]; 43: 8 µg/mL; MIC [2]; 2117: ≤ 0.06 µg/mL; MIC [3]; 6538: 1 µg/mL; MIC ([4]; 908SSI): 2 µg/mL; MIC ([5]; MRSA): 32 µg/mL; MIC [6]; 902: 0.25 µg/mL; MIC [7]; 6: 8 µg/mL; MIC [8]; 1028: > 32 µg/mL; MIC [9]: ≤ 0.06 µg/mL; MIC ([10]; ATCC27853): 32 µg/mL; MIC [11]; 15: ≤ 0.06 µg/mL; MIC ([12]; 908R): > 32 µg/mL; MIC [13]; 69438: 2 µg/mL; MIC [14]; 418: 0.12 µg/mL; MIC [15]; 25922: ≤ 0.06 µg/mL
C[n+]1cccc(N2CC/C(=C\C3=C(C(=O)[O-])N4C(=O)[C@@H](NC(=O)/C(=N\OCC(=O)O)c5csc(N)n5)[C@H]4CC3)C2=O)c1 [F, (6R,7S)-7-[(Z)-2-(2-Amino-thiazol-4-yl)-2-carboxymethoxyimino-acetylamino]-3-[(E)-1-(1-methyl-pyridin-1-ium-3-yl)-2-oxo-pyrrolidin-3-ylidenemethyl]-8-oxo-1-aza-bicyclo[4.2.0]oct-2-ene-2-carboxylate Na salt (1:1)]	2	≤ 0.06	32	≤ 0.06	> 32	≤ 0.06	> 32	0.12	≤ 0.06	1	0.12	4	≤ 0.06	≤ 0.06	≤ 0.06	≤ 0.06	
Nc1nc(/C(=N/O)C(=O)N[C@@H]2C(=O)N3C(C(=O)O)=C(/C=C4\CCN(c5ccc(O)cc5)C4=O)CC[C@H]23)cs1 [B, (6R,7S)-7-[(Z)-2-(Amino-thiazol-4-yl)-2-hydroxyimino-acetylamino]-3-[(E)-1-(4-hydroxy-phenyl)-2-oxo-pyrrolidin-3-ylidenemethyl]-8-oxo-1-aza-bicyclo[4.2.0]oct-2-ene-2-carboxylic acid sodium salt (1:1)]	32		1	0.5	32	0.5	4	> 32	≤ 0.06	32	≤ 0.06	> 32	4	0.12	0.25	0.12	
C[n+]1ccc(N2CC/C(=C\C3=C(C(=O)[O-])N4C(=O)[C@@H](NC(=O)/C(=N\OC5CCCC5)c5csc(N)n5)[C@H]4CC3)C2=O)cc1 [G, (6R,7S)-7-[(Z)-2-(2-Amino-thiazol-4-yl)-2-cyclopentyloxyimino-acetylamino]-3-[(E)-1-(1-methyl-pyridin-1-ium-4-yl)-2-oxo-pyrrolidin-3-ylidenemethyl]-8-oxo-1-aza-bicyclo[4.2.0]oct-2-ene-2-carboxylate]	1 (≈ 1.65 µM)	1 (≈ 1.65 µM)	2 (≈ 3.3 µM)	≤ 0.06	32 (≈ 52.8 µM)	≤ 0.06	1 (≈ 1.65 µM)	16 (≈ 26.4 µM)	≤ 0.06	4 (≈ 6.6 µM)	≤ 0.06	2 (≈ 3.3 µM)	0.5 (≈ 0.826 µM)	0.25 (≈ 0.413 µM)	≤ 0.06	0.5 (≈ 0.826 µM)	
